In PubChem BioAssay AID1963833 (Molecular Pharmacology Branch, DTP, NCI, 2024):

System: 883617-216-R-J1-PDC complex spheroid viability
Test: Anticancer human tumor 883617-216-R-J1-PDC patient-derived bladder carcinoma cell line growth inhibition [POLQ]
Settings: for IC50: curve of first compound; for viability, T/C: stronger effect = lower value
How it was run: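 Growth inhibition in 3D: complex spheroids (tumor PDC, HUVEC, MSC) treated with POLQ inhibitor combinations; where Cmax unknown, highest tested concentration 10 microM, except SN-38 at 1 microM.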
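Note: spheroids exposed to compounds for seven days before readout.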
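Throughout, for viability, T/C: 100% = DMSO vehicle control viability.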

CC1COCCN1c1cc(C2(O)CC3CCC(C2)O3)c2cnn(-c3ccn[nH]3)c2n1 (centres undefined) + COC1C(OC(N)=O)C(O)C(Oc2ccc3c(O)c(NC(=O)c4ccc(O)c(CC=C(C)C)c4)c(=O)oc3c2C)OC1(C)C
IC50 (second compound 0.0316 µM): 102 nM | IC50 (second compound 0.1 µM): 170 nM | IC50 (second compound 0.316 µM): 135 nM | IC50 (second compound 1 µM): 90.6 nM | IC50 (second compound 3.16 µM): 135 nM | IC50 (second compound 10 µM): 107 nM | viability, T/C (second compound 0.0316 µM, first compound 0.0316 µM): 72.8% | viability, T/C (second compound 0.0316 µM, first compound 0.1 µM): 49.2% | viability, T/C (second compound 0.0316 µM, first compound 0.316 µM): 35.2% | viability, T/C (second compound 0.0316 µM, first compound 1 µM): 34.4% | viability, T/C (second compound 0.0316 µM, first compound 3.16 µM): 24.9% | viability, T/C (second compound 0.0316 µM, first compound 10 µM): 21.8% | viability, T/C (second compound 0.1 µM, first compound 0.0316 µM): 66.8% | viability, T/C (second compound 0.1 µM, first compound 0.1 µM): 56.8% | viability, T/C (second compound 0.1 µM, first compound 0.316 µM): 42.3% | viability, T/C (second compound 0.1 µM, first compound 1 µM): 27.6% | viability, T/C (second compound 0.1 µM, first compound 3.16 µM): 25% | viability, T/C (second compound 0.1 µM, first compound 10 µM): 21.8% | viability, T/C (second compound 0.316 µM, first compound 0.0316 µM): 68.4% | viability, T/C (second compound 0.316 µM, first compound 0.1 µM): 53.1% | viability, T/C (second compound 0.316 µM, first compound 0.316 µM): 40.9% | viability, T/C (second compound 0.316 µM, first compound 1 µM): 27.7% | viability, T/C (second compound 0.316 µM, first compound 3.16 µM): 25.6% | viability, T/C (second compound 0.316 µM, first compound 10 µM): 21.7% | viability, T/C (second compound 1 µM, first compound 0.0316 µM): 73.4% | viability, T/C (second compound 1 µM, first compound 0.1 µM): 45.2% | viability, T/C (second compound 1 µM, first compound 0.316 µM): 37.1% | viability, T/C (second compound 1 µM, first compound 1 µM): 30.7% | viability, T/C (second compound 1 µM, first compound 3.16 µM): 25.9% | viability, T/C (second compound 1 µM, first compound 10 µM): 22.3% | viability, T/C (second compound 3.16 µM, first compound 0.0316 µM): 68.7% | viability, T/C (second compound 3.16 µM, first compound 0.1 µM): 52.4% | viability, T/C (second compound 3.16 µM, first compound 0.316 µM): 40.9% | viability, T/C (second compound 3.16 µM, first compound 1 µM): 32.4% | viability, T/C (second compound 3.16 µM, first compound 3.16 µM): 27.8% | viability, T/C (second compound 3.16 µM, first compound 10 µM): 21.3% | viability, T/C (second compound 10 µM, first compound 0.0316 µM): 58.5% | viability, T/C (second compound 10 µM, first compound 0.1 µM): 52.5% | viability, T/C (second compound 10 µM, first compound 0.316 µM): 42.9% | viability, T/C (second compound 10 µM, first compound 1 µM): 31.2% | viability, T/C (second compound 10 µM, first compound 3.16 µM): 29.1% | viability, T/C (second compound 10 µM, first compound 10 µM): 23%

CC(=O)O[C@H]1C(=O)[C@@]2(C)[C@H]([C@H](OC(=O)c3ccccc3)[C@]3(O)C[C@H](OC(=O)[C@H](O)[C@@H](NC(=O)c4ccccc4)c4ccccc4)C(C)=C1C3(C)C)[C@]1(OC(C)=O)CO[C@@H]1C[C@@H]2O + Cc1cccc(N(C)C(=O)C2C(O)CCN2c2nc(C)cc(C(F)(F)F)c2C#N)c1
IC50 (second compound 0.0316 µM): < 9.49 nM | IC50 (second compound 0.1 µM): < 9.49 nM | IC50 (second compound 0.316 µM): 10.4 nM | IC50 (second compound 1 µM): < 9.49 nM | IC50 (second compound 3.16 µM): < 9.49 nM | IC50 (second compound 10 µM): 11.1 nM | viability, T/C (second compound 0.0316 µM, first compound 0.00949 µM): 40.2% | viability, T/C (second compound 0.0316 µM, first compound 0.03 µM): 22.1% | viability, T/C (second compound 0.0316 µM, first compound 0.0949 µM): 22% | viability, T/C (second compound 0.0316 µM, first compound 0.3 µM): 19.8% | viability, T/C (second compound 0.0316 µM, first compound 0.949 µM): 18.5% | viability, T/C (second compound 0.0316 µM, first compound 3 µM): 23.1% | viability, T/C (second compound 0.1 µM, first compound 0.00949 µM): 46.9% | viability, T/C (second compound 0.1 µM, first compound 0.03 µM): 29.2% | viability, T/C (second compound 0.1 µM, first compound 0.0949 µM): 21.6% | viability, T/C (second compound 0.1 µM, first compound 0.3 µM): 27.5% | viability, T/C (second compound 0.1 µM, first compound 0.949 µM): 24.6% | viability, T/C (second compound 0.1 µM, first compound 3 µM): 26.7% | viability, T/C (second compound 0.316 µM, first compound 0.00949 µM): 52.2% | viability, T/C (second compound 0.316 µM, first compound 0.03 µM): 25.1% | viability, T/C (second compound 0.316 µM, first compound 0.0949 µM): 24.4% | viability, T/C (second compound 0.316 µM, first compound 0.3 µM): 23.9% | viability, T/C (second compound 0.316 µM, first compound 0.949 µM): 20.8% | viability, T/C (second compound 0.316 µM, first compound 3 µM): 24.8% | viability, T/C (second compound 1 µM, first compound 0.00949 µM): 45.4% | viability, T/C (second compound 1 µM, first compound 0.03 µM): 29.2% | viability, T/C (second compound 1 µM, first compound 0.0949 µM): 22.4% | viability, T/C (second compound 1 µM, first compound 0.3 µM): 18.9% | viability, T/C (second compound 1 µM, first compound 0.949 µM): 26.1% | viability, T/C (second compound 1 µM, first compound 3 µM): 28.2% | viability, T/C (second compound 3.16 µM, first compound 0.00949 µM): 44.1% | viability, T/C (second compound 3.16 µM, first compound 0.03 µM): 24.4% | viability, T/C (second compound 3.16 µM, first compound 0.0949 µM): 32.5% | viability, T/C (second compound 3.16 µM, first compound 0.3 µM): 27.6% | viability, T/C (second compound 3.16 µM, first compound 0.949 µM): 41.8% | viability, T/C (second compound 3.16 µM, first compound 3 µM): 28.9% | viability, T/C (second compound 10 µM, first compound 0.00949 µM): 54.7% | viability, T/C (second compound 10 µM, first compound 0.03 µM): 19.3% | viability, T/C (second compound 10 µM, first compound 0.0949 µM): 21.2% | viability, T/C (second compound 10 µM, first compound 0.3 µM): 25.3% | viability, T/C (second compound 10 µM, first compound 0.949 µM): 21.4% | viability, T/C (second compound 10 µM, first compound 3 µM): 15.6%
